In the NIST ThermoML archive (doi:10.1021/acs.jced.5b01075):
“And” between values parts separate entries of the source, which are not always exact repeats. Identical values can stand only once. ± gives the expanded uncertainty stated by the source.

Conditions: 101.33 kPa, Liquid; for speed of sound: Sing-around technique in a fixed-path interferometer; for mass density: Vibrating tube method

Cc1ccccc1 [toluene]
Conditions | mass density | speed of sound [m/s]
293.15 K | 866.816 ± 0.16 kg/m3 and 866.8 ± 0.4 kg/m3 | 1326.5 ± 0.7
303.15 K | 857.497 ± 0.16 kg/m3 and 857.5 ± 0.4 kg/m3 | 1283.5 ± 0.7
313.15 K | 848.114 ± 0.16 kg/m3 and 848.1 ± 0.4 kg/m3 | 1241 ± 0.7
323.15 K | 838.661 ± 0.17 kg/m3 and 838.7 ± 0.4 kg/m3 | 1198.9 ± 0.6
333.15 K | 829.124 ± 0.17 kg/m3 and 829.1 ± 0.4 kg/m3 | 1157.5 ± 0.6
343.15 K | 819.5 ± 0.4 kg/m3 | –
353.15 K | 809.7 ± 0.4 kg/m3 | –
